# Experimental data reported in ChEMBL document CHEMBL1145600, “Molecular features crucial to the activity of pyrimidine benzamide-based thrombopoietin receptor agonists” (Bioorg Med Chem Lett, 2008).
# Molecular target: T1, Thrombopoietin receptor (Homo sapiens, UniProt P40238)
# T1 sequence (P40238 whole entry): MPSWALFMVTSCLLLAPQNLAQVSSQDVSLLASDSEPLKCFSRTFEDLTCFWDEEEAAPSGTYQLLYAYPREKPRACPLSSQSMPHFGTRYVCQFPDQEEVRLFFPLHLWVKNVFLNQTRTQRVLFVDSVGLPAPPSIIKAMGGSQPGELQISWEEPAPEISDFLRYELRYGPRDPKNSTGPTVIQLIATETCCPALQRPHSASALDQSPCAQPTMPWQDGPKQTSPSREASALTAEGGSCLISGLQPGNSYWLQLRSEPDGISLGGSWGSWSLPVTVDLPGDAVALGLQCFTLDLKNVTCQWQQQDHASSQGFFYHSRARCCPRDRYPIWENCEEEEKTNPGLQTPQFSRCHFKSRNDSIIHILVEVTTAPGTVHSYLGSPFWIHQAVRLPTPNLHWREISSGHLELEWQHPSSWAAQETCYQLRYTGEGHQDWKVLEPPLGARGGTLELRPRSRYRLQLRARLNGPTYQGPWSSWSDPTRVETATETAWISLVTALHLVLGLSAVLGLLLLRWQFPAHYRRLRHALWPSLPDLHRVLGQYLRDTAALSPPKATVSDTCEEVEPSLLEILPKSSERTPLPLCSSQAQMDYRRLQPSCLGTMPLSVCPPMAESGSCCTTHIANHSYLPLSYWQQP
# Assay: Agonist activity at TPO receptor
# Format: functional
row,SMILES,EC50 [nM]
1,O=C(Nc1nc2c(s1)COc1ccccc1-2)c1ccc(Nc2ccncn2)cc1,520
2,O=C(Nc1nc2c(s1)COc1c(F)cccc1-2)c1ccc(Nc2ccncn2)cc1,1500
3,O=C(Nc1nc2c(s1)COc1c(Cl)cccc1-2)c1ccc(Nc2ccncn2)cc1,530
4,Nc1nc(-c2ccccc2F)cs1,6800

# The next lines start with the values.
row,EC50 [nM],SMILES
1,5200,Nc1nc(-c2cc(C(F)(F)F)ccc2F)cs1
2,89,Nc1nc(-c2ccc(F)c(C(F)(F)F)c2)c(F)s1
3,32,Nc1nc(-c2cccc(OC(F)(F)F)c2F)cs1
4,700,Nc1nc(-c2cccc(C(F)(F)F)c2F)c(F)s1
5,180,Cc1sc(N)nc1-c1ccc(F)c(C(F)(F)F)c1
6,260,Nc1nc(-c2ccc(C(F)(F)F)cc2F)cs1
7,57,Nc1nc(-c2cccc(C(F)(F)F)c2F)cs1
8,540,Cc1sc(N)nc1-c1cccc(C(F)(F)F)c1F
9,100,Nc1nc(-c2ccc(F)c(C(F)(F)F)c2)cs1
10,> 10000,Nc1nc(-c2c(F)cccc2F)cs1

# Molecular target: T2, Thrombopoietin receptor (Homo sapiens) (UniProt P40238)
# T2 sequence (whole entry): T1 sequence (P40238 whole entry)
# Assay: Agonist activity at TPO receptor at 10 uM
# Format: functional
row,Activity [%],SMILES
1,58,O=C(Nc1nc(-c2ccccc2F)cs1)c1ccc(Nc2ccncn2)cc1
2,45,O=C(Nc1nc(-c2cccc(F)c2)cs1)c1ccc(Nc2ccncn2)cc1
3,0,O=C(Nc1nc(-c2c(F)cccc2F)cs1)c1ccc(Nc2ccncn2)cc1
4,38,O=C(Nc1nc(-c2ccccc2C(F)(F)F)cs1)c1ccc(Nc2ccncn2)cc1
5,0,Nc1nc(-c2c(F)cccc2F)cs1
